Experimental data published in patent publication US10672502B2, “Methods for determining protein structure using a surface-selective nonlinear optical technique” (Biodesy, Inc., priority 2015, dated 2020).
Where two headings read alike, the source gives them in different places.

System: dihydrofolate reductase (DHFR)
Details: 1 uM TMP
Description: Immediately before applying DOPC/DGS NTA (Ni) lipids, clean microscope slides with Piranha wash for 20 minutes. Rinse 3× with diH2O in a slide staining vessel. Dry slides with compressed Nitrogen. Assemble SHG wells by attaching adhesive gaskets to Piranha-cleaned slides (i.e., 16 wells per slide containing 10-20 μl volume). Use an assembly jig to align gaskets, carefully lay slide into jig and press firmly. Dilute DOPC/DGS NTA (Ni) lipid prep 1:1 with PBS or TBS buffers. 100 mM NaCl is required to reduce hydrostatic charge of the glass slide and enable the supported lipid bilayer (SLB) to form. Pipet 10-20 μL of diluted DOPC/DGS NTA (Ni) lipid into the wells of the slide and incubate for 5 minutes at room temperature. Wash the wells by submersing the slide in buffer bath (PBS or TBS) and agitating with a 200 μL pipettor taking care not to introduce air into the wells at any time. Exchange the entire volume of buffer in the bath with fresh buffer and repeat the washing step 2 more times. Add a 1:1 volume of 100 mM NiCl2 solution to all wells and incubate for 10 minutes at room temperature. Wash the wells by submersing the slide in buffer bath (PBS or TBS) and agitating with a 200 μL pipettor. Exchange the entire volume of buffer in bath with fresh buffer and repeat the washing step 2 more times. […]

## COc1cc(Cc2cnc(N)nc2N)cc(OC)c1OC [TMP, trimethoprim]
cysteine-labeled DHFR mutant tethered to Ni/NTA supported lipid bilayer via His tag at the C-terminus
  decrease in baseline signal (SHG % change, Izzz): approximately 90%
cysteine-labeled DHFR mutant tethered to Ni/NTA supported lipid bilayer via His tag at the N-terminus, FIG. 14A
  decrease in baseline signal (SHG % change, Izzz): roughly 70%
